The results in this text go back to publication PMC11469493, “Luteolin target HSPB1 regulates endothelial cell ferroptosis to protect against radiation vascular injury” (PLOS ONE, 2024).

In assay [1] the target is T1, HSPB1 (Homo sapiens, UniProt P04792). The assay is described as follows: SPR (Reichert 4SPR, immobilised HSPB1). The following applies: read-out: affinity. The arrangement: protein immobilised by EDC/NHS on dextran SPR chip. Format: binding.
For assay [2], the target named is T1, HSPB1. Nature of the assay: DARTS with Western blot (protection from protease). It is filed as biochemical. More on the design: endogenous protein in lysate, detected by Western blot after protease digestion (DARTS). The following applies: cell lysate, room temperature, 20 min with luteolin, protease digestion 15 min.

T1 sequence (P04792 whole entry): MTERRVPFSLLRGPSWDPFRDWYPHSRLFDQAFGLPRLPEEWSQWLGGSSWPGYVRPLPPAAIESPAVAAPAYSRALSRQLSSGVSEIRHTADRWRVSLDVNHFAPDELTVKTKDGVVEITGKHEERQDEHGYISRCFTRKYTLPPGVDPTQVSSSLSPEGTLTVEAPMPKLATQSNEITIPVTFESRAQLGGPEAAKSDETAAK

In the case of `O=c1cc(-c2ccc(O)c(O)c2)oc2cc(O)cc(O)c12` [luteolin], the Kd at HSPB1 [1] was 23.7 µM. The “DARTS with Western blot (protection from protease)” value at HSPB1 [2] was “addition of luteolin under the same protease concentration conditions reduced the hydrolysis of HSPB1”.
